In patent US20190053489A1, “ANTIMICROBIAL COMPOSITION” (NATIONAL UNIVERSITY CORPORATION TOKYO MEDICAL AND DENTAL …, priority 2016, published 2019):

What was measured:
MRSA [1] = details: reported by AOKI and KASHIWAGI; cited from earlier work
MRSA IID 1677 [2] = assay: Proliferation suppression against MRSA in a diluted medium (OD600); type: cell-based, Methicillin-Resistant Staphylococcus Aureus (MRSA); details: diluted 1/2.5 LB medium, 37° C., OD 600 nm; complex 0.001%, lysozyme, chitosan and each of mixture 0.0005%; FIG. 1
Description: This test employed MRSA IID 1677, and this microbe strain was cultured in a normal broth medium at 37° C. for 20 hours. The cultured microbial solution was collected by centrifugation (3000 rpm, 10 minutes), suspended with sterilized water, and then diluted with sterilized water so that the optical density would satisfy OD600=1.0. The resultant was diluted 2000 times (corresponding to 10^6 CFU/ml) to prepare a reaction microbial solution.
Each of the LB test medium samples was added with 100 μl of reaction microbial solution and was shake cultured under the condition of 37° C. for 48 hours. Here, the LB test medium samples were prepared using 10 ml of 1/2.5 LB medium added with
(1) 10 ml of sterilized water, (2) 10 ml of the lysozyme-chitosan complex with a concentration of 0.002% (the concentration after addition was 0.001%), (3) 10 ml of lysozyme alone with a concentration of 0.001% (the concentration after addition was 0.0005%), (4) 10 ml of chitosan alone with a concentration of 0.001% (the concentration after addition was 0.0005%), and (5) 10 ml of the mixture of lysozyme and chitosan with a concentration of 0.001% (the concentration of each after addition was 0.0005%).
After that, 3 ml was extracted at time intervals (0, 1, and 2 days), and the optical density was measured at an absorption wavelength of 600 nm. […]

pseudomonas aeruginosa = assay: Observation of morphological change in pseudomonas aeruginosa by electron microscope; type: cell-based; details: complex 0.1% by mass, lysozyme 0.05%, chitosan 0.05%, mixture each 0.05%; FIG. 17
Description: (§1) Next, the morphological change in MRSA was observed by using a transmission electron microscope. This observation with a transmission electron microscope was carried out as follows: the sample was sliced in 50 nm with a diamond knife as the pretreatment and was stained with uranium acetate and lead citrate, and a transmission electron microscope (JEM-1400 manufactured by JEOL Ltd.) was used. In addition, the samples were MRSA added with physiological saline and MRSA added with a lysozyme-chitosan complex with a concentration of 0.2% by mass.
Note that the morphological change in the case of adding the lysozyme-chitosan complex to pseudomonas aeruginosa was also observed using a transmission electron microscope in the same manner as above. […] In other words, the lysozyme-chitosan complex also has a resistant microbe inactivation effect for pseudomonas aeruginosa.
(§2) Observation was carried out with a scanning electron microscope for the morphological changes in MRSA and pseudomonas aeruginosa treated with the lysozyme-chitosan complex, lysozyme alone, chitosan alone, and the mixture of lysozyme and chitosan (treatment time: 2 hours). This observation with a scanning electron microscope was carried out in the same manner as Example 8 described above: osmium coating (4 nm) was performed as the conductive treatment, and a low-acceleration ultra-high resolution scanning electron microscope (SU 9000 manufactured by Hitachi High-Technologies Corporation (accelerating voltage: 1 kV)) was used. In addition, the samples were MRSA or pseudomonas aeruginosa added with physiological saline, a lysozyme-chitosan complex with a concentration of 0.1% by mass, lysozyme of 0.05% by mass, chitosan of 0.05% by mass, and a mixture of lysozyme and chitosan, each with 0.05% by mass.

MRSA [3] = assay: Observation of morphological change in MRSA by electron microscope; type: cell-based, Methicillin-Resistant Staphylococcus Aureus (MRSA); details: complex 0.1% by mass, lysozyme 0.05%, chitosan 0.05%, mixture each 0.05%; FIG. 16
Description: First, the morphological change in MRSA was observed by using a scanning electron microscope. This observation with a scanning electron microscope was carried out as follows: osmium coating (4 nm) was performed as the conductive treatment, and a low-acceleration ultra-high resolution scanning electron microscope (SU 9000 manufactured by Hitachi High-Technologies Corporation (accelerating voltage: 1 kV)) was used. In addition, the samples were MRSA added with physiological saline and MRSA added with a lysozyme-chitosan complex with a concentration of 0.2% by mass.
as §1, §2

[4] = tested on: Micrococcus luteus bacteria; assay: Heat resistance evaluation by bacteriolytic test; type: physicochemical; details: 80° C. for 2 hours; ΔOD at 10 minutes with vs without heating; complex 5%, lysozyme 2.5% aqueous solution; FIG. 6(D)
Description: This test is a bacteriolytic test using Micrococcus luteus bacteria being lysozyme-sensitive bacteria. Note that the bacteriolytic activity is an activity specific to lysozyme. Lysozyme is a protein relatively stable against heat. However, it is known that this activity generally decreases considerably for lysozyme heated at 80° C. for 30 minutes.
This test employed an aqueous solution of the lysozyme-chitosan complex with a concentration of 5%, an aqueous solution of lysozyme with a concentration of 2.5%, and an aqueous solution of the mixture of lysozyme and chitosan with a concentration of […]. In addition, Micrococcus luteus bacteria manufactured by Wako Pure Chemical Industries, Ltd. were used as the use bacteria.
First, 1 g of Micrococcus luteus bacteria was weighed on the day before the test, added to 100 ml of physiological saline, and stirred overnight at 4° C. […]
In an optical density meter, 2800 μl of the test microbial solution was set to record OD (0-1) immediately before the addition of the sample. […] Since OD increased here, the highest value OD (0-2) was recorded.
Timer measurement was started after the addition of the sample to record OD at the time of 2, 4, 6, 8, and 10 minutes passed. Each test was carried out twice, and the average was calculated.
With OD for (0-2) being OD at the time of the start, Δoptical density (AOD) at each point was calculated. […]

MRSA IID 1677 [5] = assay: Proliferation suppression against MRSA in a standard medium (colony count method); type: cell-based, Methicillin-Resistant Staphylococcus Aureus (MRSA); details: standard TSB medium with phosphate buffer pH 7.0; complex 0.2%, lysozyme, chitosan, each of mixture 0.1%; FIG. 7
Description: This test employed MRSA IID 1677, and this microbe strain was inoculated in 20 ml of a normal broth medium (manufactured by Eiken Chemical Co., Ltd., ‘Eiken’) for overnight shake culture at 37° C. The cultured microbial solution was collected by centrifugation (3000 rpm, 10 minutes), suspended with sterilized water, and then diluted with sterilized water so that the optical density would satisfy OD600=1.0. The resultant was diluted 2000 times (corresponding to 10^6 CFU/ml) to prepare a reaction microbial solution.
Here, the TSB test medium samples were prepared using 10 ml of TSB medium (BD BBL™) added with 200 μl of 1 M phosphate buffer (pH 7.0), followed by further addition of
(1) 10 ml of sterilized water, ([…]), (3) 10 ml of lysozyme alone with a concentration of 0.2% (the concentration after addition was 0.1%), (4) 10 ml of chitosan alone with a concentration of 0.2% (the concentration after addition was 0.1%), and (5) 10 ml of the mixture of lysozyme and chitosan with a concentration of 0.2% (the concentration of each after addition was 0.1%).
After that, 100 μl was extracted and seeded on the MH agar medium, and the number of colonies produced was observed (colony count method). […] Note that the results of FIG. 7 are each the average value of the values obtained by carrying out the colony count method three times.
Note that the results of FIG. 8 are each the average value obtained with two replicate samples.

CN(C)c1ccc(O)c2c1C[C@H]1C[C@H]3[C@H](N(C)C)C(O)=C(C(N)=O)C(=O)[C@@]3(O)C(O)=C1C2=O [minomycin]
generation at which a resistant microbe is observed to produce (MRSA [1]): sixth generation

gentamicin
generation at which a resistant microbe is observed to produce (MRSA [1]): third generation

lysozyme [lysozyme alone, reference compound]
proliferation suppression effect against MRSA for 48 hours (MRSA IID 1677 [2]): observed to some extent | morphological change in pseudomonas aeruginosa, scanning electron microscope, treatment time 2 hours (pseudomonas aeruginosa): no significant morphological change was observed | morphological change in MRSA, scanning electron microscope, treatment time 2 hours (MRSA [3]): no significant morphological change was observed | residual activity (bacteriolytic) after heating treatment [4]: 73.3% | proliferation suppression effect against MRSA (ratio of colonies produced 6 hours later to control) (MRSA IID 1677 [5]): almost no proliferation suppression effect
